The target in the experiment is T1, human mGluR5d (Homo sapiens, UniProt P41594).
T1 construct: expressed in transfected cells; host or cells: GHEK (HEK cells expressing a glutamate transporter) for the IP3 assay
Kind of experiment: Functional assessment of mGluR5 antagonism in cell lines expressing mGluR5d (FLIPR calcium mobilization / IP3 turnover; assay behind the values not specified). It counts as cell-based. Particulars: cells expressing human mGluR5d; FLIPR or IP3 assay not specified. The source says: The pharmacological properties of the compounds of the invention can be analyzed using standard assays for functional activity. Examples of glutamate receptor assays are well known in the art as described in for example Aramori et al., Neuron 8:757 (1992), Tanabe et al., Neuron 8:169 (1992), Miller et al., J. Neuroscience 15: 6103 (1995), Balazs, et al., J. Neurochemistry 69:151 (1997). The methodology described in these publications is incorporated herein by reference. Conveniently, the compounds of the invention can be studied by means of an assay that measures the mobilization of intracellular calcium, [Ca^2+]i in cells expressing mGluR5.
Intracellular calcium mobilization was measured by detecting changes in fluorescence of cells loaded with the fluorescent indicator fluo-3. Fluorescent signals were measured using the FLIPR system (Molecular Devices). […]
FLIPR experiments were done using a laser setting of 0.800 W and a 0.4 second CCD camera shutter speed. […] After each addition of the compound, the fluorescence signal was sampled 50 times at 1 second intervals followed by 3 samples at 5 second intervals. Responses were measured as the peak height of the response within the sample period. […]
We have validated a secondary functional assay for mGluR5d based on Inositol Phosphate (IP3) turnover. IP3 accumulation is measured as an index of receptor mediated phospholipase C turnover. […]
A general note: Calcium flux is commonly read through the fluorescence of an indicator in the cells.

T1 sequence (P41594 21-942 isoform P41594-3 limits assumed): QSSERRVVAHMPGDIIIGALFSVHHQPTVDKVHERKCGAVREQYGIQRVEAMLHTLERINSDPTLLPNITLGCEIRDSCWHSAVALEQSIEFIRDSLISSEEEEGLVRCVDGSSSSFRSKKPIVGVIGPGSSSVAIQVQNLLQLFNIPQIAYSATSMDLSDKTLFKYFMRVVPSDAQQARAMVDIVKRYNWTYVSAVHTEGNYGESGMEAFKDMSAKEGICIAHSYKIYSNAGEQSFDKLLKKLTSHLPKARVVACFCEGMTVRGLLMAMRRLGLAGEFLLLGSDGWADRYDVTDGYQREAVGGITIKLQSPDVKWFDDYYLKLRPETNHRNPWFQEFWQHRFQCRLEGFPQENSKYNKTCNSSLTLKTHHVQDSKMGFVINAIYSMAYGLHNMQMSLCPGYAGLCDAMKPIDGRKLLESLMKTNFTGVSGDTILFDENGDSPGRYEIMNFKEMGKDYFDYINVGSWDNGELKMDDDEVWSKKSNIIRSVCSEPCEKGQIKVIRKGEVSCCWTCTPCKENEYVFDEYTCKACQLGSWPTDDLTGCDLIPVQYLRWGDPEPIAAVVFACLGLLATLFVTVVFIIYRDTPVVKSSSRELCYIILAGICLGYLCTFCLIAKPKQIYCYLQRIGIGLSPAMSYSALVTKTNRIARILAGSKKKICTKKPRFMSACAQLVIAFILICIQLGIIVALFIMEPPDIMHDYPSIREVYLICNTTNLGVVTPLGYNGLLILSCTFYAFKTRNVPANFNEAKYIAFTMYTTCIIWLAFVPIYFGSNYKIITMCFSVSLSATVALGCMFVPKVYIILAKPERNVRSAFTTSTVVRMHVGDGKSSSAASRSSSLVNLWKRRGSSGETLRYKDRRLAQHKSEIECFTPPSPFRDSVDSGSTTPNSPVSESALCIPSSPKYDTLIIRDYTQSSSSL

In the case of `CC(c1cn(-c2cccc(Cl)c2)nn1)N1CCN(c2ncccc2C#N)CC1` (centres unmarked) [Example 15.16, 2-(4-{1-[1-(3-chlorophenyl)-1H-1,2,3-triazol-4-yl]ethyl}piperazin-1-yl)nicotinonitrile], the IC50 (commonly the point on the concentration scale where inhibition reaches its midpoint) came out at 1080 nM. The same measure for `CC(c1cn(-c2cccc(Cl)c2)nn1)N1CCN(c2ccc(C#N)cn2)CC1` (centres unmarked) [Example 15.17, 6-(4-{1-[1-(3-chlorophenyl)-1H-1,2,3-triazol-4-yl]ethyl}piperazin-1-yl)nicotinonitrile]: 159 nM.

For the origin of these results see patent US20080312246A1, “Substituted Piperazines as Metabotropic Glutamate Receptor Antagonists” (AstraZeneca AB, priority 2005, published 2008).
